Test results from patent US8569372B2, “Method for preventing or treating a disease, disorder or condition induced by retina ischemia” (priority 2011, dated 2013).

Assays:
HIF-1 Alpha = assay: ELISA of HIF-1 Alpha protein in RGC-5 cells under H2O2 oxidative stress; type: cell-based; details: 100 μM SAC 15-minute pre-treatment, 500 μM H2O2 24 hours; control 1254.39±116.03, H2O2 1874.72±133.46; n=6
Protocol: (§1) In the enzyme-linked immunosorbent assay (ELISA), the cells (2.5×10^4 in each well) were plated into 96-well plates. Each well contains 200 μl of DMEM (control) without or with H2O2. Next, the cells were incubated at 37° C. for 1 day and then shifted to serum free medium for the following day. In order to stimulate oxidative stress, 500 μM H2O2 (Sigma-Aldrich 18304/k0250, St Louis, Mo., USA) was then added for 24 hours as described elsewhere. Depending on the experimental protocol, SAC or vehicle was added to some samples 15 minutes before adding H2O2. […] Total protein was determined using a bicinchoninic acid protein kit (Thermo Fisher Scientific Inc., IL, U.S.A.). The HIF-1 Alpha/VEGF/MMP-9 levels in the cells/medium were measured using various ELISA kits, namely HIF-1 Alpha (Uscn Life Science Inc., Wuhan 430056, China); VEGF-A (BMS277/2, Bender […], Austria) and MMP-9 Duoset (D911, R&D, Minneapolis, Minn., U.S.A.). […] The HIF-1 Alpha/VEGF/MMP-9 concentration of each sample was determined by constructing a standard curve using 100 μl of sample diluent containing various amounts of HIF-1 Alpha/VEGF/MMP-9 pure protein (0-1000 pg/ml). […] The absorbance (optical intensity, O.D.) was detected at 450 nm by spectrophotometer (ELx800, Biotek, Winooski, Vt., U.S.A.). […]

VEGF = assay: ELISA of VEGF protein in RGC-5 cells under H2O2 oxidative stress; type: cell-based; details: 100 μM SAC 15-minute pre-treatment, 500 μM H2O2 24 hours; control 91.91±21.72, H2O2 250.55±39.63; n=6
Protocol: as §1

[1] = test system: cholinergic amacrine cells (ChAT immunoreactivity); assay: ChAT immunofluorescence of the retina after ischaemia/reperfusion; type: in vivo, Wistar rats; details: 100 μM SAC pre-treatment
Protocol: The rats (200-250 g) were anaesthetized and placed in a stereotaxic frame. The anterior chamber of one eye was cannulated with a 30-gauge needle connected to a 0.9% saline reservoir; this caused a high IOP (HIOP) of 120 mmHg for 60 minutes. Eye fundus whitening and a low ERG response confirmed induction of an ischaemic insult. A sham procedure was carried out on the controls. Drug administration involved the pre-administration (15-minute before 60-minute HIOP induced retinal ischaemia) of SAC (25, 50, 100 μM) or vehicle (saline; control). The ischemic eye of each test rat was treated with or without a single intravitreous injection of 5 μl of the test compound. In addition, SAC (100 μM) was administered to the non-ischaemic eye (normal) to see whether SAC has any adverse effects. In both cases, the paired normal eye was untreated. The rats were sacrificed and intracardially perfused with 0.9% normal saline (w/v). Then the rat retinas were removed, fixed with 4% (w/v) paraformaldehyde for 45 minutes and then transferred to 30% sucrose for cryosectioning. Sampling was carried out one or seven days after the sham-operation or induction of retinal ischaemia. […] The retinal sections were examined using a fluorescence microscope (Olympus BX61, Center Valley, Pa., USA).

SMILES: C=CCSC[C@H](N)C(=O)O [SAC, S-allyl L-cysteine]
- HIF-1 Alpha protein level (ELISA) (HIF-1 Alpha): 1256.47 ± 157.62 pg/mL
- VEGF protein level (ELISA) (VEGF): 121.61 ± 12.54 pg/mL
- ChAT immunopositive amacrine cell bodies per field ([1]; 1 day after I/R, sham 39±3, vehicle 14±1): 26±2 per field
- ChAT immunopositive amacrine cell bodies per field ([1]; 7 days after I/R, sham 38±3, vehicle 10±5): 24±5 per field
